From BindingDB's records for patent US20250313563 (The Broad Institute, 2025)
Where “and” joins values, the source holds several entries; their conditions need not be identical. Equal entries are not always repeated.

What was measured:
[1] = target: Glycogen synthase kinase-3 alpha (Homo sapiens, UniProt P49840); experiment: TR-FRET Assay
Summary of the method: (§1)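 Enzyme and test compound were first incubated together for 30 minutes in assay buffer. The kinase reaction followed and was stopped with EDTA. The pSer641 signal was read by time-resolved FRET.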

[2] = target: Glycogen synthase kinase-3 beta (Homo sapiens, UniProt P49841); experiment: TR-FRET Assay
Summary of the method: as §1

Sequence of Glycogen synthase kinase-3 alpha (P49840 whole entry): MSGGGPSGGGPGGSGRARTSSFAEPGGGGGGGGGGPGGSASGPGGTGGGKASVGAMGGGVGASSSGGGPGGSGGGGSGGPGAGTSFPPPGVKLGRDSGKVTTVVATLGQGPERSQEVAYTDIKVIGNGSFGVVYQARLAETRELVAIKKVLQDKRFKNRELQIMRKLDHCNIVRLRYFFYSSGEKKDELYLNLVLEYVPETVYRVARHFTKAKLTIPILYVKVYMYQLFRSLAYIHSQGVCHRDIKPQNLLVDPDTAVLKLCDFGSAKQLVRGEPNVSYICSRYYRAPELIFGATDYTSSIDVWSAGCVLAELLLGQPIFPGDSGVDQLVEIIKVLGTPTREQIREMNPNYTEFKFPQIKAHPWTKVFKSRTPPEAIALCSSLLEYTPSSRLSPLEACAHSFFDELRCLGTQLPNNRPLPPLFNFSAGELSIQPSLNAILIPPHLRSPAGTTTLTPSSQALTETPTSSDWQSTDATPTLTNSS
Sequence of Glycogen synthase kinase-3 beta (P49841 whole entry): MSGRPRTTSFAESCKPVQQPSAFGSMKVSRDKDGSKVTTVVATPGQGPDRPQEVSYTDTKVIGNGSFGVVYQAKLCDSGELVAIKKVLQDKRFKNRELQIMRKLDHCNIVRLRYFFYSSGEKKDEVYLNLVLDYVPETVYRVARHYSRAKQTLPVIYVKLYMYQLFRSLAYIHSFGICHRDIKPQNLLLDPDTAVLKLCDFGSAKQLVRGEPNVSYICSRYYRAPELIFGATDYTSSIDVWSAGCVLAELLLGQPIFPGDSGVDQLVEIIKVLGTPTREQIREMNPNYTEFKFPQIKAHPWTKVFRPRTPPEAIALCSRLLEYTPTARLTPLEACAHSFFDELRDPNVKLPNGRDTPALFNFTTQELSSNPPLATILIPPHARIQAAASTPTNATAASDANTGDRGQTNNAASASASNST

Row | Structure (SMILES) | IC50 [1] | IC50 [2]
1 | CC1(C)CC(=O)C2=C(C1)NC1=C(CN=N1)C21CCCCCC1 [US20250313563, Compound 883978] | 100 to 1000 nM | 100 to 1000 nM
2 | CC[C@]1(c2cccc(C(F)(F)F)c2)C2=CN=NC2NC2=C1C(=O)N(C)C[C@@H]2C (stereo partly drawn) [US20250313563, Compound 883979] | < 100 nM | < 100 nM
3 | CC[C@]1(c2cccc(C(F)(F)F)c2)C2=CN=NC2NC2=C1C(=O)N(C)C[C@H]2C (stereo partly drawn) [US20250313563, Compound 883980] | < 100 nM and 100 to 1000 nM | < 100 nM and 1000 to 5000 nM
4 | CC[C@@]1(c2cccc(C(F)(F)F)c2)C2=CN=NC2NC2=C1C(=O)N(C)C[C@@H]2C (stereo partly drawn) [US20250313563, Compound 883981] | > 5000 nM | > 5000 nM
5 | CC[C@@]1(c2cccc(C(F)(F)F)c2)C2=CN=NC2NC2=C1C(=O)N(C)C[C@H]2C (stereo partly drawn) [US20250313563, Compound 883982] | > 5000 nM | > 5000 nM
6 | CCC1(c2cccc(-c3ccnc(OC)c3)c2)C2=C(CC(C)(C)CC2=O)NC2N=NC(C)=C21 (stereo not drawn) [US20250313563, Compound 883985] | < 100 nM | 100 to 1000 nM
7 | CCC1(c2cccc(-c3ccncc3F)c2)C2=CN=NC2NC2=C1C(=O)CC(C)(C)C2 (stereo not drawn) [US20250313563, Compound 883986] | < 100 nM | < 100 nM
8 | CCC1(c2cccc(-c3ccnc(C)c3)c2)C2=C(CC(C)(C)CC2=O)NC2N=NC(C)=C21 (stereo not drawn) [US20250313563, Compound 883987] | < 100 nM | 100 to 1000 nM
9 | CCC1(c2cccc(-c3cc(C)ncc3C)c2)C2=C(CC(C)(C)CC2=O)NC2N=NC(C)=C21 (stereo not drawn) [US20250313563, Compound 883988] | < 100 nM | < 100 nM
10 | CCC1(c2cccc(-c3ccnc(C(F)(F)F)c3)c2)C2=C(CC(C)(C)CC2=O)NC2N=NC(C)=C21 (stereo not drawn) [US20250313563, Compound 883989] | < 100 nM | 100 to 1000 nM
11 | CCC1(c2cccc(-c3ccnc(N(C)C)c3)c2)C2=C(CC(C)(C)CC2=O)NC2N=NC(C)=C21 (stereo not drawn) [US20250313563, Compound 883990] | < 100 nM | 100 to 1000 nM
12 | CCC1(c2cccc(-c3ccncc3C)c2)C2=C(CC(C)(C)CC2=O)NC2N=NC(C)=C21 (stereo not drawn) [US20250313563, Compound 883991] | < 100 nM | < 100 nM
13 | CCC1(c2cccc(-c3ccnn3C)c2)C2=C(CC(C)(C)CC2=O)NC2N=NC(C)=C21 (stereo not drawn) [US20250313563, Compound 883992] | < 100 nM | < 100 nM
14 | CCC1(c2cccc(-c3cnn(C)c3C)c2)C2=C(CC(C)(C)CC2=O)NC2N=NC(C)=C21 (stereo not drawn) [US20250313563, Compound 883993] | < 100 nM | < 100 nM
15 | CCC1(c2cccc(C3=CN=NC3)c2)C2=C(CC(C)(C)CC2=O)NC2N=NC(C)=C21 (stereo not drawn) [US20250313563, Compound 883994] | < 100 nM | < 100 nM
16 | CCC1(c2cccc(-c3c(C)nn(C)c3C)c2)C2=C(CC(C)(C)CC2=O)NC2N=NC(C)=C21 (stereo not drawn) [US20250313563, Compound 883995] | < 100 nM | < 100 nM
17 | CCC1(c2cccc(-c3cnn(CCOC)c3)c2)C2=C(CC(C)(C)CC2=O)NC2N=NC(C)=C21 (stereo not drawn) [US20250313563, Compound 883996] | < 100 nM | 100 to 1000 nM
18 | CCC1(c2cccc(-c3cnn(C4CC4)c3)c2)C2=C(CC(C)(C)CC2=O)NC2N=NC(C)=C21 (stereo not drawn) [US20250313563, Compound 883997] | < 100 nM | 100 to 1000 nM
19 | CCC1(c2cccc(-c3cn(C)nc3C(C)C)c2)C2=C(CC(C)(C)CC2=O)NC2N=NC(C)=C21 (stereo not drawn) [US20250313563, Compound 883998] | < 100 nM | 100 to 1000 nM
20 | CCC1(c2cccc(-c3ccn(C)n3)c2)C2=C(CC(C)(C)CC2=O)NC2N=NC(C)=C21 (stereo not drawn) [US20250313563, Compound 883999] | < 100 nM | < 100 nM
21 | CCC1(c2cccc(-c3cnn(C)c3)c2)C2=C(CC(C)(C)CC2=O)NC2N=NC(C)=C21 (stereo not drawn) [US20250313563, Compound 884000] | < 100 nM | 100 to 1000 nM
22 | CCC1(c2cccc(-c3cncn3C)c2)C2=C(CC(C)(C)CC2=O)NC2N=NC(C)=C21 (stereo not drawn) [US20250313563, Compound 884001] | < 100 nM | < 100 nM
23 | CCC1(c2cccc(-c3cnn4c3CCCC4)c2)C2=C(CC(C)(C)CC2=O)NC2N=NC(C)=C21 (stereo not drawn) [US20250313563, Compound 884002] | < 100 nM | < 100 nM
24 | CCC1(c2cccc(-c3cn(C)nc3C)c2)C2=C(CC(C)(C)CC2=O)NC2N=NC(C)=C21 (stereo not drawn) [US20250313563, Compound 884003] | < 100 nM | < 100 nM
25 | CC1(C)CC(=O)C2=C(C1)NC1=C(CN=N1)[C@]21C[C@@H](n2cccn2)C1 [US20250313563, Compound 884004] | < 100 nM | < 100 nM
26 | CC1(C)CC(=O)C2=C(C1)NC1=C(CN=N1)[C@]21C[C@H](n2cccn2)C1 [US20250313563, Compound 884005] | < 100 nM | < 100 nM
27 | CC(C)[C@@H]1C[C@]2(CCO1)C1=C(N=NC1)NC1=C2C(=O)CC(C)(C)C1 [US20250313563, Compound 884013] | 1000 to 5000 nM | > 5000 nM

Row | Structure (SMILES) | IC50 [1] | IC50 [2]
28 | CC(C)[C@H]1C[C@@]2(CCO1)C1=C(N=NC1)NC1=C2C(=O)CC(C)(C)C1 [US20250313563, Compound 884014] | 1000 to 5000 nM | > 5000 nM
29 | CC1(C)CC(=O)C2=C(C1)NC1=C(CN=N1)[C@]21CCO[C@@H](C(F)(F)F)C1 [US20250313563, Compound 884021] | 100 to 1000 nM | 100 to 1000 nM
30 | CC1(C)CC(=O)C2=C(C1)NC1=C(CN=N1)[C@@]21CCO[C@H](C(F)(F)F)C1 [US20250313563, Compound 884022] | 100 to 1000 nM | 100 to 1000 nM
31 | CC1(C)CC(=O)C2=C(C1)NC1=C(CN=N1)[C@]21CCO[C@H](C(F)(F)F)C1 [US20250313563, Compound 884023] | 1000 to 5000 nM | > 5000 nM
32 | CC1(C)CC(=O)C2=C(C1)NC1=C(CN=N1)[C@@]21CCO[C@@H](C(F)(F)F)C1 [US20250313563, Compound 884024] | 1000 to 5000 nM | > 5000 nM
33 | CC1(C)CCC2(CC1)C1=C(N=NC1)NC1=C2C(=O)CC(C)(C)C1 [US20250313563, Compound 884107] | < 100 nM | 100 to 1000 nM
34 | CCN(C(C)=O)c1cccc(C2(CC)C3=CN=NC3NC3=C2C(=O)CC(C)(C)C3)c1 (stereo not drawn) [US20250313563, Compound 884109] | < 100 nM | < 100 nM
35 | CCC1(c2cccc(N(Cc3ccccc3)C(C)=O)c2)C2=CN=NC2NC2=C1C(=O)CC(C)(C)C2 (stereo not drawn) [US20250313563, Compound 884110] | < 100 nM | < 100 nM
36 | O=C1CCCC2=C1C1(CCOCC1)C1=C(N=NC1)N2 [US20250313563, Compound 884111] | 1000 to 5000 nM | > 5000 nM
37 | CC1CC(=O)C2=C(C1)NC1=C(CN=N1)C21CCOCC1 (stereo not drawn) [US20250313563, Compound 884112] | 100 to 1000 nM | 100 to 1000 nM
38 | C[C@@H]1C[C@H](C)C[C@]2(C1)C1=C(N=NC1)NC1=C2C(=O)CC(C)(C)C1 [US20250313563, Compound 884113] | 100 to 1000 nM | 1000 to 5000 nM
39 | C[C@@H]1C[C@H](C)C[C@@]2(C1)C1=C(N=NC1)NC1=C2C(=O)CC(C)(C)C1 [US20250313563, Compound 884114] | 100 to 1000 nM | 100 to 1000 nM
40 | CC[C@]1(c2cccc(N3CCCCC3)c2)C2=C(CC(C)(C)CC2=O)NC2N=NC(C)=C21 (stereo partly drawn) [US20250313563, Compound 884115] | 100 to 1000 nM | 100 to 1000 nM
41 | CC[C@@]1(c2cccc(N3CCCCC3)c2)C2=C(CC(C)(C)CC2=O)NC2N=NC(C)=C21 (stereo partly drawn) [US20250313563, Compound 884116] | < 100 nM and 100 to 1000 nM | < 100 nM and 100 to 1000 nM
42 | CC[C@@]1(c2cccc(OC)c2)C2=C(CC(C)(C)CC2=O)NC2N=NC(C(F)(F)F)=C21 (stereo partly drawn) [US20250313563, Compound 884117] | < 100 nM | < 100 nM and 100 to 1000 nM
43 | CC[C@]1(c2cccc(OC)c2)C2=C(CC(C)(C)CC2=O)NC2N=NC(C(F)(F)F)=C21 (stereo partly drawn) [US20250313563, Compound 884118] | 100 to 1000 nM | 1000 to 5000 nM
44 | CO[C@H]1CC[C@@]2(CC1)C1=C(N=NC1)NC1=C2C(=O)CC(C)(C)C1 [US20250313563, Compound 884119] | < 100 nM | 100 to 1000 nM
45 | CO[C@H]1CC[C@]2(CC1)C1=C(N=NC1)NC1=C2C(=O)CC(C)(C)C1 [US20250313563, Compound 884120] | 100 to 1000 nM | 100 to 1000 nM
46 | CCC1(c2cccc(N3CCCCCC3)c2)C2=CN=NC2NC2=C1C(=O)CC(C)(C)C2 (stereo not drawn) [US20250313563, Compound 885088] | 100 to 1000 nM | 100 to 1000 nM
47 | CCC1(c2cccc(N3CC4CCC(C4)C3)c2)C2=CN=NC2NC2=C1C(=O)CC(C)(C)C2 (stereo not drawn) [US20250313563, Compound 885099] | 100 to 1000 nM | 1000 to 5000 nM
48 | CCC1(c2cccc(N3CC4CCC3C4)c2)C2=CN=NC2NC2=C1C(=O)CC(C)(C)C2 (stereo not drawn) [US20250313563, Compound 885110] | < 100 nM | 100 to 1000 nM
49 | CCC1(c2cccc(N3CC4CCC3CC4)c2)C2=CN=NC2NC2=C1C(=O)CC(C)(C)C2 (stereo not drawn) [US20250313563, Compound 885120] | < 100 nM | 100 to 1000 nM
50 | CCC1(c2cccc(N3CCC[C@@H]3C)c2)C2=CN=NC2NC2=C1C(=O)CC(C)(C)C2 (stereo partly drawn) [US20250313563, Compound 885188] | 100 to 1000 nM | 100 to 1000 nM
51 | CCC1(c2cccc(N3CCCC[C@@H]3C)c2)C2=CN=NC2NC2=C1C(=O)CC(C)(C)C2 (stereo partly drawn) [US20250313563, Compound 885217] | 100 to 1000 nM | 100 to 1000 nM
52 | CCC1(c2cccc(N3CCCC[C@H]3C)c2)C2=CN=NC2NC2=C1C(=O)CC(C)(C)C2 (stereo partly drawn) [US20250313563, Compound 885228] | < 100 nM | 100 to 1000 nM
53 | CCC1(c2cccc(N3C[C@H](C)C[C@H](C)C3)c2)C2=CN=NC2NC2=C1C(=O)CC(C)(C)C2 (stereo partly drawn) [US20250313563, Compound 885237] | 100 to 1000 nM | 1000 to 5000 nM
54 | CCN(c1cccnc1)c1cccc(C2(CC)C3=CN=NC3NC3=C2C(=O)CC(C)(C)C3)c1 (stereo not drawn) [US20250313563, Compound 885331] | < 100 nM | < 100 nM
